Experimental data as given in patent US7354571B2, “Photoprotective compositions comprising methyltrialkylsilanes containing a cinnamate, cinnamamide, benzalmalonamide or benzalmalonate function” (L'Oreal, priority 2003, dated 2008).

Experiment: UV absorption in ethanol
Assay type: physicochemical
Settings: for E1% / εmax: at λmax

## COC(=O)C(=Cc1ccc(OC[Si](C)(C)C)cc1)C(=O)OC [Example 1, dimethyl 2-(4-trimethylsilanylmethoxy)benzylidenemalonate]
  λmax: λmax = 317 nm,
  E1%: E1% = 840.
  εmax: εmax = 27 085,
Listed as Example 2
  E1%: E1% = 820.
  εmax: εmax = 26 440,

## CCOC(=O)C(=Cc1ccc(OC[Si](C)(C)C)cc1)C(=O)OCC [Example 3, diethyl 2-(4-trimethylsilanylmethoxy)benzylidenemalonate]
  λmax: λmax = 316 nm,
  E1%: E1% = 750.
  εmax: εmax = 26 290,

## CC(C)COC(=O)C(=Cc1ccc(OC[Si](C)(C)C)cc1)C(=O)OCC(C)C [Example 4, diisobutyl 2-(4-trimethylsilanylmethoxy)benzylidenemalonate]
  λmax: λmax = 316 nm,
  E1%: E1% = 663.
  εmax: εmax = 26 960,

## CC(C)(C)COC(=O)C(=Cc1ccc(OC[Si](C)(C)C)cc1)C(=O)OCC(C)(C)C [Example 5, dineopentyl 2-(4-trimethylsilanylmethoxy)benzylidenemalonate]
  λmax: λmax = 317 nm,
  E1%: E1% = 592.
  εmax: εmax = 25 730,

## CC1(C)OC(=O)C(=Cc2ccc(OC[Si](C)(C)C)cc2)C(=O)O1 [Example 6, 2,2-dimethyl-5-[4-(trimethylsilanylmethoxy)benzylidene]-1,3-dioxane-4,6-dione]
  λmax: λmax = 370 nm,
  E1%: E1% = 756.
  εmax: εmax = 25 230,

## CCCCC(CC)COC(=O)C(=Cc1ccc(OC[Si](C)(C)C)c(OC)c1)C(=O)OCC(CC)CCCC (centres unmarked) [Example 7, bis(2-ethylhexyl) 2-[3-methoxy-4-(trimethylsilanylmethoxy)benzylidene]malonate]
  λmax: λmax = 331 nm,
  E1%: E1% = 331.
  εmax: εmax = 18 170,

## COC(=O)C(=Cc1ccc(OC[Si](C)(C)COc2ccc(C=C(C(=O)OC)C(=O)OC)cc2)cc1)C(=O)OC [Example 9, dimethyl 2-(4-{[({4-[3-methoxy-2-(methoxycarbonyl)-3-oxoprop-1-enyl]phenoxy}methyl)(dimethyl)silyl]methoxy}benzylidene)malonate]
  λmax: λmax = 316 nm,
  E1%: E1% = 903.
  εmax: εmax = 50 270,

## C[Si](C)(C)COc1ccc(C=C(C(N)=O)C(N)=O)cc1 [Example 10, 2-[4-(trimethylsilanylmethoxy)benzylidene]malonamide]
  λmax: λmax = 310 nm,
  E1%: E1% = 696.
  εmax: εmax = 20 350,

## CC(C)OC(=O)/C=C/c1ccc(OC[Si](C)(C)C)cc1 [Example 11, isopropyl 2-(4-trimethylsilanylmethoxy)cinnamate]
  λmax: λmax = 310 nm,
  E1%: E1% = 711.
  εmax: εmax = 20 800,

## COc1ccc(C=C(C(=O)OC[Si](C)(C)C)C(=O)OC[Si](C)(C)C)cc1 [Example 13, di(methyltrimethylsilanyl) 2-(4-methoxybenzylidene)malonate]
  λmax: λmax = 313 nm,
  E1%: E1% = 653.
  εmax: εmax = 25 770,
